The values that follow are results of earlier work, collected in article PMC9377340 (Chemical biology & drug design, 2022).

Values joined by “and” are separate entries in the source; they are usually repeats but may differ in a detail not shown here. Equal entries are not always repeated.

By IC50 is commonly meant the point on the concentration scale where inhibition reaches its midpoint.

In this series the target is human FXIa (Homo sapiens, UniProt P03951). Conditions: ref Kar et al., 2020.
Sequence of human FXIa (P03951 388-625 limits assumed): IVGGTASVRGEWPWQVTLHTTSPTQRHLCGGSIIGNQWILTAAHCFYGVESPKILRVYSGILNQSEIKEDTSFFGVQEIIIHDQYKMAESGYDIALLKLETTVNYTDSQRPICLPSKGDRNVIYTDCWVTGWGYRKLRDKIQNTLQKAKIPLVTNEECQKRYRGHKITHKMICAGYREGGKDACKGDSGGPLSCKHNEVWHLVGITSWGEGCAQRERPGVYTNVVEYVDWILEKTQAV
Sequence of human FXIa (P03951 19-387 limits assumed): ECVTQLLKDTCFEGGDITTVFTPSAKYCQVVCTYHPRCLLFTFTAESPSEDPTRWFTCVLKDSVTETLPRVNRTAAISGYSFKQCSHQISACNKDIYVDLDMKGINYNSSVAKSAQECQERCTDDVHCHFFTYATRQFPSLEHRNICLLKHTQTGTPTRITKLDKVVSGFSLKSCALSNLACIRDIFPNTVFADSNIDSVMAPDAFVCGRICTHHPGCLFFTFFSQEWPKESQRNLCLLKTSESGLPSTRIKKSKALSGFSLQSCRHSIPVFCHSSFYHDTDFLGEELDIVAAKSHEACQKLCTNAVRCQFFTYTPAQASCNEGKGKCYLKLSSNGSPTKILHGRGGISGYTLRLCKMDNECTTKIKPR

For the substance benzyl tetraphosphonate [BTP], the “HS (Hill slope), FXIa inhibition” value is recorded as 1.9 ± 0.5 and the “ΔY (efficacy), FXIa inhibition” value is given as 68.0 ± 3.7%. In addition, under “read-out: IC50, FXIa inhibition”, the IC50 is ~7.4 µM and 7.4 µM.
